Measured values taken from ChEMBL document CHEMBL3864149, “Design, synthesis and structure-activity relationships of novel phenylalanine-based amino acids as kainate receptors ligands” (Bioorg Med Chem Lett, 2016).

Tests used:
[1] = Displacement of [3H]-AMPA from AMPA receptor in rat brain membranes after 30 mins; assay type: cell membranes, Membrane
[2] = Displacement of [3H]-kainate from kainate receptor in rat brain membranes after 60 mins; assay type: cell membranes, Membrane
[3] = biological target: Glutamate receptor ionotropic, kainate 3 (Rattus norvegicus, UniProt P42264); assay: Displacement of [3H]-kainate from rat recombinant GluK3 receptor expressed in baculovirus infected insect Sf9 cell membranes after 60 mins
[4] = biological target: Glutamate receptor ionotropic, kainate 1 (Rattus norvegicus, UniProt P22756); assay: Displacement of [3H]-NF608 from rat recombinant GluK1 receptor expressed in baculovirus infected insect Sf9 cell membranes after 60 mins
[5] = Displacement of [3H]-kainate from kainate receptor in rat brain membranes after 1 hr by liquid scintillation counting method; assay type: cell membranes, Membrane
[6] = Displacement of [3H]-AMPA from AMPA receptor in rat brain membranes after 1 hr by liquid scintillation counting method; assay type: cell membranes, Membrane
[7] = biological target: Glutamate receptor ionotropic, kainate 2 (Homo sapiens, UniProt Q13002); assay: Displacement of [3H]-kainate from human recombinant GluK2 receptor expressed in HEK293 cell membranes after 60 mins
[8] = biological target: T1, Glutamate receptor ionotropic, kainate 5 (Homo sapiens, UniProt Q16478); assay: Displacement of [3H]-kainate from human recombinant GluK5 receptor expressed in HEK293 cell membranes after 60 mins
T1 sequence (Q16478 whole entry): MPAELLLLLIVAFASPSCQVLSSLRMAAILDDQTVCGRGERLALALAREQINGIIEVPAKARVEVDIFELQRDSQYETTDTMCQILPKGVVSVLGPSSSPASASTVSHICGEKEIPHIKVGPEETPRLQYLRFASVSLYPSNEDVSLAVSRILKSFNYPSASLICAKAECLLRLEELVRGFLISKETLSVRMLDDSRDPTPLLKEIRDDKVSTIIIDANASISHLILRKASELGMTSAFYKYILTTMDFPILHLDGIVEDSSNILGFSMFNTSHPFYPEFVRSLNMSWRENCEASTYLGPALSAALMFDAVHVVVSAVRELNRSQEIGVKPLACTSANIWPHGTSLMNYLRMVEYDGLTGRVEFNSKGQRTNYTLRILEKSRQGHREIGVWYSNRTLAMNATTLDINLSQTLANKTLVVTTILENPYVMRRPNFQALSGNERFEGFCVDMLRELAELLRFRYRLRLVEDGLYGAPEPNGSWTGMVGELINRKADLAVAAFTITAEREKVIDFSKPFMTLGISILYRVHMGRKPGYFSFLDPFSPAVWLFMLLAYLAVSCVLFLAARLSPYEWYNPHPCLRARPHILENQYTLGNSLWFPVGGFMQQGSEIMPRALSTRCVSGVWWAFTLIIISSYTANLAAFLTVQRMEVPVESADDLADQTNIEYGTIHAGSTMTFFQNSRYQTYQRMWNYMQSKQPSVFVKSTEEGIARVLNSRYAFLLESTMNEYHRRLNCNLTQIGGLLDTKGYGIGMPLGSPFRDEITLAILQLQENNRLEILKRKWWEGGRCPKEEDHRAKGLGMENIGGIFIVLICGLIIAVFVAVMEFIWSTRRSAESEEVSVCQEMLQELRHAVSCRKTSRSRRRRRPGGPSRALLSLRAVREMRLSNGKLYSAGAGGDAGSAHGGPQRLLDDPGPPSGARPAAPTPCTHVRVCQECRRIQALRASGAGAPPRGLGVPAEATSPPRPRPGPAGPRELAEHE

Rattus norvegicus = species on record: Rattus norvegicus; assay: Selectivity ratio of Ki for rat recombinant GluK3 receptor to Ki for rat recombinant GluK1 receptor

Sequence of Glutamate receptor ionotropic, kainate 3 (P42264 whole entry): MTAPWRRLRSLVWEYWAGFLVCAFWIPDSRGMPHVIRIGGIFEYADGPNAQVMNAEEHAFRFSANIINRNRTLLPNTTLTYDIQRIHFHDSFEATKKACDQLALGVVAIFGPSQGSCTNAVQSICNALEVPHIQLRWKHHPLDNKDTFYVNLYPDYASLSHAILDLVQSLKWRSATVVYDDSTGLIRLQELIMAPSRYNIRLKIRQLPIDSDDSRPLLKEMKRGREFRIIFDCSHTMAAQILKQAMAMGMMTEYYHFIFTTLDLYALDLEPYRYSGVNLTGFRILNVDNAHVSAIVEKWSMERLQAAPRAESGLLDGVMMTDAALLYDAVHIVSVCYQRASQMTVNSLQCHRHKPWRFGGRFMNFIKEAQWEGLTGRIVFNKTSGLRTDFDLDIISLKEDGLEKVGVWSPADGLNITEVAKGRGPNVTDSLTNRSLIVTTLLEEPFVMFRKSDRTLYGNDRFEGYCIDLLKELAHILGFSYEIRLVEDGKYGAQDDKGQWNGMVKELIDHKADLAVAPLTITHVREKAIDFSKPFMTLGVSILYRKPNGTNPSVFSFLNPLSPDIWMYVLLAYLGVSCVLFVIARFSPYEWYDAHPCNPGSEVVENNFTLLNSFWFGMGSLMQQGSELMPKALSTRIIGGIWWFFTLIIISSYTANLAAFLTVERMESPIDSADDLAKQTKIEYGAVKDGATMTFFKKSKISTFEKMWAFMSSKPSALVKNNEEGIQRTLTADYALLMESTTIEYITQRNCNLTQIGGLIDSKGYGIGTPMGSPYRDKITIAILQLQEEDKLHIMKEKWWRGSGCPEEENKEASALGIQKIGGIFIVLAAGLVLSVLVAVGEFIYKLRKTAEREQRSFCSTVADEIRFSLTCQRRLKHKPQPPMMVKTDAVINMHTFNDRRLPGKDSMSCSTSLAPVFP
Sequence of Glutamate receptor ionotropic, kainate 1 (P22756 whole entry): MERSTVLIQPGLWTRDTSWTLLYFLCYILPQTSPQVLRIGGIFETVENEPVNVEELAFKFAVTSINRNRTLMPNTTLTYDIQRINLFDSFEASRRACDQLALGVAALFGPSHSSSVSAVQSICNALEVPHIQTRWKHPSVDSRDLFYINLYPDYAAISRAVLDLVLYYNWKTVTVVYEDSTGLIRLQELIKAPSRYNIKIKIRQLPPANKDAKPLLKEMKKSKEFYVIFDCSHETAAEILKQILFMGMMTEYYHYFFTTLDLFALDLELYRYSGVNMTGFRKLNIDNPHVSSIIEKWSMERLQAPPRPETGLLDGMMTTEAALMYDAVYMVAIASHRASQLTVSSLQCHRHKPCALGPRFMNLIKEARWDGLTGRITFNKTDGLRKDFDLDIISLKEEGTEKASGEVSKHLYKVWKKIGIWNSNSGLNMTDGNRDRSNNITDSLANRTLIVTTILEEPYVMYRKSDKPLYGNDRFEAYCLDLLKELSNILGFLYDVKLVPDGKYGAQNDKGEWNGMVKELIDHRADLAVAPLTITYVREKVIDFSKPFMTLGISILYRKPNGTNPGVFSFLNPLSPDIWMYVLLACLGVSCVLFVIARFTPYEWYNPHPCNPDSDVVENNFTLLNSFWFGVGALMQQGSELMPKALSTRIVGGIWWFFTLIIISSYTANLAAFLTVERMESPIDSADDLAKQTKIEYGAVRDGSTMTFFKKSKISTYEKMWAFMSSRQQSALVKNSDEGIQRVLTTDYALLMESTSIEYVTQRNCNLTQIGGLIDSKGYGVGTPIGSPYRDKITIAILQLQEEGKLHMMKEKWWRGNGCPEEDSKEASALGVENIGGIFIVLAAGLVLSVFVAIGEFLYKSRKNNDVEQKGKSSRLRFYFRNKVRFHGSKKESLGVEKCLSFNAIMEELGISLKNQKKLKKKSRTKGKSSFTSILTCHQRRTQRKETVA
Sequence of Glutamate receptor ionotropic, kainate 2 (Q13002 whole entry): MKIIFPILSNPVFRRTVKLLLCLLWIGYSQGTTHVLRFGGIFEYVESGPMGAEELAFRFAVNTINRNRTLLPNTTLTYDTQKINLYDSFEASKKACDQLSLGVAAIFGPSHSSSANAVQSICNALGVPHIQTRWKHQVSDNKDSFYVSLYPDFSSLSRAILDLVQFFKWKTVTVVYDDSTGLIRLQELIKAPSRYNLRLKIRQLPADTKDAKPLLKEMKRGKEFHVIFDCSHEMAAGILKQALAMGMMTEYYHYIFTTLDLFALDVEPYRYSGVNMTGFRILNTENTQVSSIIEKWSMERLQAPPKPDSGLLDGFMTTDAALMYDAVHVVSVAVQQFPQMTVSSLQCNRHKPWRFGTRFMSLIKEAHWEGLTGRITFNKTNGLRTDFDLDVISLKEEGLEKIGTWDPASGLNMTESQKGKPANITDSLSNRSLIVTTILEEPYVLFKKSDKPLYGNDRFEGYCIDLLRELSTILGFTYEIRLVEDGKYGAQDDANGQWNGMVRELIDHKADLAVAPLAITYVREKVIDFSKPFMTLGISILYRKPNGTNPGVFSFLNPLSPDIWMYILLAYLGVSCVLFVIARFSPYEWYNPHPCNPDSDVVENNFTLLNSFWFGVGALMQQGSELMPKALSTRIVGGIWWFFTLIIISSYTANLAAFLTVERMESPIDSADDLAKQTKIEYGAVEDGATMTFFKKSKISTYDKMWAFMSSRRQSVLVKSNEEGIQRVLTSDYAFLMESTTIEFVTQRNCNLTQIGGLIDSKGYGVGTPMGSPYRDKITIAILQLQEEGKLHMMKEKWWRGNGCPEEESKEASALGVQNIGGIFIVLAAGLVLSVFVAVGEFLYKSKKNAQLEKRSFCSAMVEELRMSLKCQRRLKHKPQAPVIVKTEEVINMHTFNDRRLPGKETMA

SMILES	Ki [1]	pKi [1]	Ki [2]	Ki [3]	Ki ([4]; read-out: Ki)	Ki ([4]; read-out: pKi (converted))	other results
NC(Cc1cc(Cl)cc(-c2cccc(C(=O)O)c2)c1)C(=O)O (racemic)	51 µM	4.31	> 100 µM	25 µM	5.7 µM	5.5 µM	–
CC(C)(C)c1onc(OCP(=O)(O)O)c1C[C@H](N)C(=O)O	–	–	–	> 1000 µM	–	–	IC50 [5]: > 100 µM; IC50 [6]: 16 µM
O=C(O)[C@@H]1C[C@H]2C[C@@H](CN3CC(F)(F)C[C@H]3C(=O)O)CC[C@H]2CN1	–	–	–	–	–	–	Ki [7]: 0.05 µM; Ki [8]: 8.9 µM
NC(Cc1cc(Cl)c(O)c(-c2cccc(C(=O)O)c2)c1)C(=O)O (racemic)	> 100 µM	–	> 100 µM	11 µM	5.5 µM	–	Ratio Ki (Rattus norvegicus): 2
NC(Cc1cc(Cl)c(Cl)c(-c2cccc(C(=O)O)c2)c1)C(=O)O (centres undefined)	–	–	–	> 100 µM	–	–	–
NC(Cc1cc(-c2cccc(C(=O)O)c2)c(Cl)c([N+](=O)[O-])c1)C(=O)O (racemic)	62 µM	4.21	32 µM	> 100 µM	6.1 µM	5.89 µM	pKi [2]: 4.5
NC(Cc1ccc(Cl)c(-c2cccc(C(=O)O)c2)c1)C(=O)O (racemic)	> 100 µM	–	> 100 µM	> 100 µM	35 µM	–	–
Nc1c(-c2cccc(C(=O)O)c2)cc(CC(N)C(=O)O)cc1[N+](=O)[O-] (racemic)	> 100 µM	–	> 100 µM	> 100 µM	7.5 µM	7.08 µM	–

Second part, led by results:

Ki [1]	pKi [1]	Ki [2]	Ki [3]	Ki ([4]; read-out: Ki)	Ki ([4]; read-out: pKi (converted))	SMILES	other results
–	–	–	> 100 µM	–	–	NC(Cc1cccc(-c2cccc(C(=O)O)c2)c1)C(=O)O (centres undefined)	–
> 100 µM	–	> 100 µM	> 100 µM	26 µM	–	Nc1ccc(CC(N)C(=O)O)cc1-c1cccc(C(=O)O)c1 (racemic)	–
38 µM	4.43	> 100 µM	> 100 µM	32 µM	–	NC(Cc1cc(-c2cccc(C(=O)O)c2)cc([N+](=O)[O-])c1)C(=O)O (racemic)	–
100 µM	–	> 100 µM	> 100 µM	4.9 µM	4.68 µM	Nc1c(Cl)cc(CC(N)C(=O)O)cc1-c1cccc(C(=O)O)c1 (racemic)	Ratio Ki (Rattus norvegicus): 20
65 µM	4.19	> 100 µM	23 µM	7.2 µM	–	NC(Cc1ccc([N+](=O)[O-])c(-c2cccc(C(=O)O)c2)c1)C(=O)O (racemic)	–
